How the values were obtained:
Format in all cases: biochemical
Conditions in all cases: Table 8
[1] = tested on: Rabbit Skeletal myofibrils (rabbit psoas muscle); test: Myofibril ATPase assay (PK/LDH NADH-coupled), skeletal myofibrils
In short: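 Rabbit psoas myofibrils in pCa (PIPES/CaCl2/EGTA, pH 7.0) buffer; ADP coupled via PK/LDH to NADH loss, read at 340 nm every 1.5–2 min for 75 min. Slopes normalized to vehicle (100%) and fit to 4-parameter logistic for EC25, plus EC50 for inhibitors.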

[2] = molecular target: T1, Porcine Ventricle myofibrils (left ventricle of Yucatan minipigs) (Sus scrofa, UniProt P79293); test: Myofibril ATPase assay (PK/LDH NADH-coupled), ventricle myofibrils
T1 construct: Myofibrils from porcine cardiac muscle was isolated from the left ventricle of Yucatan minipigs; tissue Exemplar Genetics; host or cells: left ventricle of Yucatan minipigs
T1 sequence (P79293 whole entry): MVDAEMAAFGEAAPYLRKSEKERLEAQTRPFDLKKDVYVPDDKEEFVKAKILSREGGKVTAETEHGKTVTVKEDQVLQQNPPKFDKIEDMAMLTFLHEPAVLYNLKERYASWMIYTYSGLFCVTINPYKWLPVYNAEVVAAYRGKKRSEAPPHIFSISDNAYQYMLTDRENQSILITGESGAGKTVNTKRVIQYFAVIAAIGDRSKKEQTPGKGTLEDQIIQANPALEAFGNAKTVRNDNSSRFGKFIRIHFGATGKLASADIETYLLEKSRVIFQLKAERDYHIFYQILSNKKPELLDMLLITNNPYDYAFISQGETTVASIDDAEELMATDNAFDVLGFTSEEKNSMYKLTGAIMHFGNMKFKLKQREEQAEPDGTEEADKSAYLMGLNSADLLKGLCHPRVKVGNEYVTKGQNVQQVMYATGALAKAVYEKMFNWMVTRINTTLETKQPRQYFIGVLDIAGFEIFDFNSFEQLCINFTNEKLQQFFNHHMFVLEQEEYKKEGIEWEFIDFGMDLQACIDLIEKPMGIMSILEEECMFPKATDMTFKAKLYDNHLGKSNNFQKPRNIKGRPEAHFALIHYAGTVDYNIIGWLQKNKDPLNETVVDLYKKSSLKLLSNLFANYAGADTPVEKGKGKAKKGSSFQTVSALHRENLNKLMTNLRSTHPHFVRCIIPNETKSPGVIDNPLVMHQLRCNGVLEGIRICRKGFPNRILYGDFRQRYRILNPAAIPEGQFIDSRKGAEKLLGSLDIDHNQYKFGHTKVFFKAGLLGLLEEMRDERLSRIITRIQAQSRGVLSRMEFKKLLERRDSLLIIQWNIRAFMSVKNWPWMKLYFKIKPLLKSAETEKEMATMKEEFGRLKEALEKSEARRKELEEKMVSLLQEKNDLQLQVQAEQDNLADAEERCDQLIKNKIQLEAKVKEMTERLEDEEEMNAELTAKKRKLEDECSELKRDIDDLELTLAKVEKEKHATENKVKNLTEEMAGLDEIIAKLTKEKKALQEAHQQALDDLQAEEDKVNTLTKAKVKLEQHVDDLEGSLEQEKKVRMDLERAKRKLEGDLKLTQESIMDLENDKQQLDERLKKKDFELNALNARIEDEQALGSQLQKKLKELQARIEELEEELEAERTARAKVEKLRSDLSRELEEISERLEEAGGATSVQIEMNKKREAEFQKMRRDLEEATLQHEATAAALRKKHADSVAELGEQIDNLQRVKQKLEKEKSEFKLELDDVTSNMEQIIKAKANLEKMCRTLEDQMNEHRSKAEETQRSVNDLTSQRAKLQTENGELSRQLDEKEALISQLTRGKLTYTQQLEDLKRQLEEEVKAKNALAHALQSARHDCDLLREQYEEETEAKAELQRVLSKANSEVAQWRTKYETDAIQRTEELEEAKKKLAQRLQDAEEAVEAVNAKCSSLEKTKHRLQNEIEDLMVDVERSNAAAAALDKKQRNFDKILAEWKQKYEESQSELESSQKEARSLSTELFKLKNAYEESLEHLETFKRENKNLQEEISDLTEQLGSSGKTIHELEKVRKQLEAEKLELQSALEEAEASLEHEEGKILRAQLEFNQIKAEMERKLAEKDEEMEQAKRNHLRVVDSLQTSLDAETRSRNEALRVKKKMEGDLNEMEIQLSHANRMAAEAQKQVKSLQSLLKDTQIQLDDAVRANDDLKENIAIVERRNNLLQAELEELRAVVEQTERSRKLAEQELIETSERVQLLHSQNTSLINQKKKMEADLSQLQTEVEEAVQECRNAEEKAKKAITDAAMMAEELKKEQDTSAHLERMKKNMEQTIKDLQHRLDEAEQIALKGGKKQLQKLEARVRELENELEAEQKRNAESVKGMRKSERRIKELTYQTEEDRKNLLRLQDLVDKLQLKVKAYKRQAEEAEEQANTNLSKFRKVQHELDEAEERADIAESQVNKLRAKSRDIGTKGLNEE
In short: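 Yucatan minipig left-ventricle myofibrils; ATPase measured by PK/LDH-coupled NADH loss at 340 nm, read every 1.5-2 min for 75 min. Slopes normalized to vehicle (100%) and fit to 4-parameter logistic model; EC25 and, for inhibitors, EC50 calculated.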

[3] = tested on: Porcine Atria myofibrils; test: Myofibril ATPase assay (PK/LDH NADH-coupled), atria myofibrils
In short: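 Porcine atrial myofibril ATPase followed via PK/LDH-coupled NADH depletion, absorbance at 340 nm read every 1.5-2 min over 75 min. Slopes (mAU/min) normalized to vehicle as 100% and fit to a 4-parameter logistic; EC25% derived, plus EC50% for inhibitors.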

Row | SMILES | Rabbit Psoas IC25 [1] | Porcine Ventricle IC25 [2] | Porcine Atria IC25 [3]
1 | O=C(CN1Cc2cc(F)ccc2NC1=O)N[C@H]1COc2cc(F)cc(F)c21 [Compound B146] | 5.163 µM | 68.33 µM | 1.52 µM
2 | O=C(CN1Cc2c(ccc(F)c2F)NC1=O)N[C@H]1COc2cc(F)cc(F)c21 [Compound B148] | 0.4985 µM | 5.833 µM | 0.85 µM
3 | C[C@@H](NC(=O)CN1C(=O)Nc2ccc(C#N)cc2C12CC2)c1ncc(F)cc1F [Compound B149] | 0.1803 µM | 100 µM | 73.55 µM
4 | C[C@H](NC(=O)CN1C(=O)Nc2ccc(C#N)cc2C12CC2)c1ncc(F)cc1F [Compound B150] | 100 µM | 22.65 µM | 0.98 µM
5 | C[C@@H](NC(=O)CN1Cc2c(C#N)cccc2NC1=O)c1ncc(F)cc1F [Compound B153] | 0.5161 µM | 100 µM | 16.33 µM
6 | C[C@H](NC(=O)CN1Cc2c(C#N)cccc2NC1=O)c1ncc(F)cc1F [Compound B154] | 0.0315 µM | 2.518 µM | 0.18 µM
7 | C[C@H](NC(=O)CN1C(=O)Nc2ccccc2[C@H]1C)c1ccc(F)cc1F [Compound B155] | 0.0851 µM | 3.17 µM | 0.43 µM
8 | C[C@H](NC(=O)CN1C(=O)Nc2ccccc2[C@H]1C)c1ccc(F)cc1F [Compound B156] | 0.232 µM | 10.58 µM | 4.12 µM
9 | CC(NC(=O)CN1Cc2cc(C#N)ccc2NC1=O)c1ncc(C#N)cc1F (stereo not drawn) [Compound B157] | 100 µM | 100 µM | 5.96 µM
10 | C[C@@H]1c2ccccc2NC(=O)N1CC(=O)N[C@H](C)c1ncc(F)cc1F [Compound B158] | 18.11 µM | 100 µM | 100.00 µM
11 | C[C@@H](NC(=O)CN1C(=O)Nc2ccccc2[C@@H]1C)c1ncc(F)cc1F [Compound B159] | 100 µM | 100 µM | 100.00 µM
12 | C[C@H](NC(=O)CN1Cc2c(ccc(C#N)c2F)NC1=O)c1ccc(F)cc1F [Compound B160, 2-(6-Cyano-5-fluoro-2-oxo-1,4-dihydroquinazolin-3-yl)-N-[(1S)-1-(2,4-difluorophenyl)ethyl]acetamide] | 0.3154 µM | 4.311 µM | 0.36 µM
13 | C[C@H](NC(=O)CN1C(=O)Nc2ccccc2[C@H]1C)c1ncc(F)cc1F [Compound B161] | 1.295 µM | 45.8 µM | 4.15 µM
14 | C[C@H](NC(=O)CN1C(=O)Nc2ccccc2[C@@H]1C)c1ncc(F)cc1F [Compound B162] | 0.7039 µM | 100 µM | 52.14 µM
15 | C[C@@H](NC(=O)CN1C(=O)Nc2ccc(F)cc2C12CC2)c1ncc(F)cc1F [Compound B163] | 0.4728 µM | 31.68 µM | 2.08 µM
16 | C[C@H](NC(=O)CN1C(=O)Nc2ccc(F)cc2C12CC2)c1ncc(F)cc1F [Compound B164] | 0.0273 µM | 0.3444 µM | 0.10 µM
17 | C[C@@H]1c2ccccc2NC(=O)N1CC(=O)N[C@@H](CO)c1ncc(F)cc1F [Compound B165] | 100 µM | 100 µM | 17.36 µM
18 | C[C@H]1c2ccccc2NC(=O)N1CC(=O)N[C@@H](CO)c1ncc(F)cc1F [Compound B166] | 6.966 µM | 100 µM | 51.60 µM
19 | C[C@@H](C(=O)N[C@H](CO)c1ncc(F)cc1F)N1Cc2c(Cl)cccc2NC1=O [Compound B167] | 100 µM | 100 µM | 100.00 µM

Row | SMILES | Rabbit Psoas IC25 [1] | Porcine Ventricle IC25 [2] | Porcine Atria IC25 [3]
20 | C[C@H](C(=O)N[C@H](CO)c1ncc(F)cc1F)N1Cc2c(Cl)cccc2NC1=O [Compound B168] | 100 µM | 100 µM | 100.00 µM
21 | C[C@@H](C(=O)N[C@@H](CO)c1ncc(F)cc1F)N1Cc2c(Cl)cccc2NC1=O [Compound B169] | 0.3955 µM | 1.354 µM | 0.15 µM
22 | C[C@H](C(=O)N[C@@H](CO)c1ncc(F)cc1F)N1Cc2c(Cl)cccc2NC1=O [Compound B170] | 9.578 µM | 31.8 µM | 2.85 µM
23 | C[C@@H](NC(=O)CN1Cc2cc(F)ccc2NC1=O)c1ccc(C#N)cn1 [Compound B171] | 7.545 µM | 100 µM | 19.79 µM
24 | C[C@@H](NC(=O)CN1Cc2cc(F)ccc2NC1=O)c1ncccc1F [Compound B173] | 100 µM | 100 µM | 100.00 µM
25 | C[C@H](NC(=O)CN1Cc2cc(F)ccc2NC1=O)c1ncccc1F [Compound B174] | 83 µM | 100 µM | 46.54 µM
26 | O=C(CN1Cc2c(ccc(F)c2F)NC1=O)N[C@H](CO)c1ncc(F)cc1F [Compound B175] | 100 µM | 100 µM | 100.00 µM
27 | O=C(CN1Cc2c(ccc(F)c2F)NC1=O)N[C@@H](CO)c1ncc(F)cc1F [Compound B176] | 0.08998 µM | 0.3872 µM | 0.06 µM
28 | C[C@@H](NC(=O)CN1Cc2cc(F)ccc2NC1=O)c1ccc(F)cc1F [Compound B177] | 68.51 µM | 100 µM | 100.00 µM
29 | COc1cnc([C@@H](C)NC(=O)CN2Cc3cc(F)ccc3NC2=O)c(F)c1 [Compound B178] | 3.38 µM | 100 µM | 3.48 µM
30 | O=C(CN1Cc2cc(F)ccc2NC1=O)N[C@H](CO)c1ncc(F)cc1F [Compound B180] | 100 µM | 100 µM | 100.00 µM
31 | Cc1cccnc1[C@@H](C)NC(=O)CN1Cc2c(ccc(F)c2F)NC1=O [Compound B182] | 1.159 µM | 100 µM | 2.28 µM
32 | Cc1cccnc1[C@H](C)NC(=O)CN1Cc2c(ccc(F)c2F)NC1=O [Compound B183] | 100 µM | 100 µM | 100.00 µM
33 | COc1cccnc1[C@@H](C)NC(=O)CN1Cc2c(ccc(F)c2F)NC1=O [Compound B184] | 100 µM | 56.86 µM | 57.48 µM
34 | COc1cccnc1[C@H](C)NC(=O)CN1Cc2c(ccc(F)c2F)NC1=O [Compound B185] | 100 µM | 100 µM | 100.00 µM
35 | COc1cccnc1[C@@H](C)NC(=O)CN1Cc2cc(F)ccc2NC1=O [Compound B186] | 100 µM | 100 µM | 100.00 µM
36 | COc1cccnc1[C@H](C)NC(=O)CN1Cc2cc(F)ccc2NC1=O [Compound B187] | 100 µM | 100 µM | 68.80 µM
37 | C[C@@H](NC(=O)CN1Cc2c(ccc(F)c2F)NC1=O)c1ccc(C#N)cc1F [Compound B188] | 0.4649 µM | 1.834 µM | 0.42 µM

— patent US12509431B2, “1,4-dihydroquinazolinone compounds and uses thereof” (Edgewise Therapeutics, Inc., priority 2022, dated 2025)
